In US6413517B1, “Identification of broadly reactive DR restricted epitopes” (Epimmune, Inc., priority 1997, dated 2002):
Read-outs that look alike come from different tables or passages of the source. No end group written: not given here.

Columns and labels:
DRB1*0101 (DR1) = target: T1, DRB1*0101 (DR1) (Homo sapiens, UniProt P01903+P01911, A100R/D57E/F55L/F60I/F76Y/I96L/L162R/M171V/P40L/Q125E/R42F/V115G/Y59C); assay: biochemical; type: binding
T1 construct: Epstein-Barr virus (EBV) transformed homozygous cell lines were used as sources; endogenous in cells; host or cells: LG2 (EBV-transformed homozygous B cell line)

DRB1*0401 (DR4w4) = target: T2, DRB1*0401 (DR4w4) (Homo sapiens, UniProt P01903+P01911, A100K/A169T/F76Y/I96L/K127E/L162R/M171V/N62H/P40V/Q125Y/R42H/S133A/S149N/S66Y/V115G/V209L/W38E); assay: biochemical; type: binding
T2 construct: Epstein-Barr virus (EBV) transformed homozygous cell lines were used as sources; endogenous in cells; host or cells: PREISS (EBV-transformed homozygous B cell line)

DRB1*0701 (DR7) = target: T3, DRB1*0701 (DR7) (Homo sapiens, UniProt P01903+P01911, A100R/A102G/A103Q/D57E/D86V/E43K/F76Y/K127E/L162R/M171V/P40G/Q125H/Q99D/R33Q/R42Y/R54Q/S133A/S66F/T210M/V115G/Y107V/Y59L/Y89S); assay: biochemical; type: binding
T3 construct: Epstein-Barr virus (EBV) transformed homozygous cell lines were used as sources; endogenous in cells; host or cells: PITOUT (EBV-transformed homozygous B cell line)

DRB1*1501 (DR2w2b) = target: T4, DRB1*1501 (DR2w2b) (Homo sapiens, UniProt P01903+P01911); assay: biochemical; type: binding
T4 construct: expressed in transfected cells; host or cells: transfected fibroblasts L466.1

DRB5*0101 (DR2w2a) = target: T5, DRB5*0101 (DR2w2a) (Homo sapiens, UniProt P01903+Q30154); assay: biochemical; type: binding
T5 construct: Epstein-Barr virus (EBV) transformed homozygous cell lines were used as sources; endogenous in cells; host or cells: GM3107 (EBV-transformed homozygous B cell line)

DRB1*0405 (DR4w15) = target: T6, DRB1*0405 (DR4w15) (Homo sapiens, UniProt P01903+P01911, A100R/A169T/D86S/F76Y/I96L/K127E/L162R/M171V/N62H/P40V/Q125Y/R42H/S133A/S149N/S66Y/V115G/V209L/W38E); assay: biochemical; type: binding
T6 construct: Epstein-Barr virus (EBV) transformed homozygous cell lines were used as sources; endogenous in cells; host or cells: KT3 (EBV-transformed homozygous B cell line)

DRB1*1101 (DR5w11) = target: T7, DRB1*1101 (DR5w11) (Homo sapiens, UniProt P01903+P01911, A100R/A169T/A87E/I96F/K41T/L162R/M171V/P40S/Q125H/Q178H/Q39Y/Q99D/R42S/S66Y/T262R/V115G/W38E); assay: biochemical; type: binding
T7 construct: Epstein-Barr virus (EBV) transformed homozygous cell lines were used as sources; endogenous in cells; host or cells: SWEIG (EBV-transformed homozygous B cell line)

DRB1*1302 (DR6w19) = target: T8, DRB1*1302 (DR6w19) (Homo sapiens, UniProt P01903+P01911, A100E/A169T/K41T/L162R/M171V/P40S/Q125H/Q178H/Q39Y/Q99D/R42S/S66N/T262R/V115G/W38E/Y61H); assay: biochemical; type: binding
T8 construct: Epstein-Barr virus (EBV) transformed homozygous cell lines were used as sources; the source of Class II molecules the EBV transformed homozygous cell line H0301; endogenous in cells; host or cells: H0301 (EBV-transformed homozygous B cell line)

DRB1*0802 (DR8w2) = target: T9, DRB1*0802 (DR8w2) (Homo sapiens, UniProt P01903+P01911, A100R/A103L/A169T/F76Y/H45Y/I96F/K41T/L162R/M171V/P40S/Q125H/Q178H/Q39Y/Q99D/R218S/R42G/S66Y/V115G/W38E); assay: biochemical; type: binding
T9 construct: Epstein-Barr virus (EBV) transformed homozygous cell lines were used as sources; endogenous in cells; host or cells: OLL (EBV-transformed homozygous B cell line)

DRB1*0901 (DR9) = target: T10, DRB1*0901 (DR9) (Homo sapiens, UniProt P01903+P01911, A100R/A103E/D57H/D86V/F55Y/F60I/F76Y/I96F/K127E/L162R/M171V/P40D/Q125H/Q99R/R33Q/R42F/S133A/S66N/T210M/V115G/W38K/Y107V/Y59G/Y89S); assay: biochemical; type: binding
T10 construct: Epstein-Barr virus (EBV) transformed homozygous cell lines were used as sources; endogenous in cells

DRB1*1201 (DR5w12) = target: T11, DRB1*1201 (DR5w12) (Homo sapiens, UniProt P01903+P01911, A100R/A169T/D57E/D86V/F55L/H45Y/K41T/L162R/M171V/P40S/Q125H/Q178H/Q39Y/Q99D/R42G/S66L/T262R/V114A/V67L/W38E/Y59H/Y61H/Y89S); assay: biochemical; type: binding
T11 construct: Epstein-Barr virus (EBV) transformed homozygous cell lines were used as sources; endogenous in cells; host or cells: Herluf (EBV-transformed homozygous B cell line)

DRB1*0301 (DR3w17) [1] = target: T12, DRB1*0301 (DR3w17) (Homo sapiens, UniProt P01903+P01911, A100K/A102G/A103R/A169T/F55Y/I96L/K41T/L162R/M171V/P40S/Q125H/Q178H/Q39Y/R42S/S66N/T106N/T262R/W38E/Y61H); details: read-out: Binding Capacity (IC 50% nM) Other Alleles DR3
DRB1*0301 (DR3w17) [2] = target: T12, DRB1*0301 (DR3w17); assay: biochemical; details: Binding Capacity (IC50% nM) DR3
[3] = Binding Capacity (IC 50% nM) DR1,4,7 DRB1
[4] = Binding Capacity (IC 50% nM) DR1,4,7 DR4w4
[5] = Binding Capacity (IC50% nM) DR7
[6] = read-out: Binding Capacity (IC 50% nM) DR1,4,7 DR7
[7] = Binding Capacity (IC 50% nM) Other Alleles DR2w2b
[8] = Binding Capacity (IC 50% nM) Other Alleles DR2w2a
[9] = Binding Capacity (IC 50% nM) Other Alleles DR4w15
[10] = Binding Capacity (IC50% nM) DR6w19
[11] = read-out: Binding Capacity (IC 50% nM) Other Alleles DR6w19
[12] = read-out: Binding Capacity (IC 50% nM) Other Alleles DR9
[13] = Binding Capacity (IC50% nM) DR5w12
[14] = read-out: Binding Capacity (IC 50% nM) Other Alleles DR5w12
[15] = Binding Capacity (IC50% nM) DR2w2a
[16] = read-out: Binding Capacity (IC 50% nM) Other Alleles DR2w2a
[17] = read-out: Binding Capacity (IC 50% nM) Other Alleles DR4w15
[18] = read-out: Binding Capacity (IC 50% nM) Other Alleles DR5w11
[19] = Binding Capacity (IC50% nM) DR8w2
[20] = read-out: Binding Capacity (IC 50% nM) Other Alleles DR8w2
[21] = Binding Capacity (IC 50% nM) DR1,4,7 DR7
[22] = read-out: Binding Capacity (IC 50% nM) Other Alleles DR2w2b
[23] = Binding Capacity (IC 50% nM) Other Alleles DR6w19
[24] = Binding Capacity (IC 50% nM) Other Alleles DR9

T7 sequence (P01903 26-254, other chains not shown): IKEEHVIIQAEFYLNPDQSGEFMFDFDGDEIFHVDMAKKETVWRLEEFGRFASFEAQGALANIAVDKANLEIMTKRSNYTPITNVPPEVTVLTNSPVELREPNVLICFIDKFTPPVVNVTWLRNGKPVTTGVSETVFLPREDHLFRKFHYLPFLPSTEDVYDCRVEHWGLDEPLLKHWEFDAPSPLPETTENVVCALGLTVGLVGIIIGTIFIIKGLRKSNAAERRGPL

Molecule | IC50 (DRB1*0101 (DR1); [3]) | IC50 (DRB1*0401 (DR4w4); [4]) | IC50 (DRB1*0701 (DR7); [5]) | IC50 (DRB1*0701 (DR7); [6]) | IC50 (DRB1*1501 (DR2w2b); [7]) | IC50 (DRB5*0101 (DR2w2a); [8]) | IC50 (DRB1*0405 (DR4w15); [9]) | IC50 (DRB1*1302 (DR6w19); [10]) | IC50 (DRB1*1302 (DR6w19); [11]) | IC50 (DRB1*0901 (DR9); [12]) | IC50 (DRB1*1201 (DR5w12); [13]) | IC50 (DRB1*1201 (DR5w12); [14]) | IC50 (DRB1*0301 (DR3w17) [1]) | IC50 (DRB1*0301 (DR3w17) [2]) | IC50 (DRB5*0101 (DR2w2a); [15]) | IC50 (DRB5*0101 (DR2w2a); [16]) | IC50 (DRB1*0405 (DR4w15); [17]) | IC50 (DRB1*1101 (DR5w11); [18]) | IC50 (DRB1*0802 (DR8w2); [19]) | IC50 (DRB1*0802 (DR8w2); [20]) | other results
CC[C@H](C)[C@H](NC(=O)[C@H](Cc1ccccc1)NC(=O)[C@H](Cc1ccccc1)NC(=O)[C@H](CO)NC(=O)[C@H](C)NC(=O)[C@@H]1CCCN1C(=O)[C@H](Cc1ccccc1)NC(=O)[C@@H](NC(=O)[C@@H](N)C(C)C)C(C)C)C(=O)N[C@@H](CCCCN)C(=O)N[C@@H](CC(C)C)C(=O)N1CCC[C@H]1C(=O)N[C@H](C(=O)N[C@H](C(=O)N[C@@H](CC(C)C)C(=O)N[C@@H](C)C(=O)O)[C@@H](C)CC)[C@@H](C)CC [Peptide 1136.11] | < 1000 nM | < 1000 nM | 9610 nM | > 1000 nM | < 1000 nM | < 1000 nM | < 1000 nM | > 10000 nM | > 1000 nM | > 1000 nM | > 10000 nM | > 1000 nM | > 1000 nM | > 10000 nM | – | – | – | – | – | – | IC50 (DRB1*1101 (DR5w11); Binding Capacity (IC 50% nM) Other Alleles DR5w11): < 1000 nM; IC50 (DRB1*0802 (DR8w2); Binding Capacity (IC 50% nM) Other Alleles DR8w2): < 1000 nM
LAAIIFLFGPPTALRS [Peptide 1136.28] | < 1000 nM | < 1000 nM | 3620 nM | > 1000 nM | < 1000 nM | – | – | 3180 nM | > 1000 nM | > 1000 nM | 4480 nM | > 1000 nM | > 1000 nM | > 10000 nM | 1480 nM | > 1000 nM | > 1000 nM | > 1000 nM | 7540 nM | > 1000 nM | IC50 (DRB1*0101 (DR1); Binding Capacity (IC50% nM) DR1): 0.23 nM; IC50 (DRB1*0401 (DR4w4); Binding Capacity (IC50% nM) DR4w4): 849 nM; IC50 (DRB1*0405 (DR4w15); Binding Capacity (IC50% nM) DR4w15): 6670 nM; IC50 (DRB1*0901 (DR9); Binding Capacity (IC50% nM) DR9): > 10000 nM
CC[C@H](C)[C@H](NC(=O)[C@H](CO)NC(=O)[C@H](CO)NC(=O)[C@H](CC(N)=O)NC(=O)[C@@H](NC(=O)[C@@H](NC(=O)[C@H](CC(N)=O)NC(=O)[C@H](Cc1ccccc1)NC(=O)[C@@H](N)C(C)C)C(C)C)C(C)C)C(=O)NCC(=O)N[C@@H](CC(C)C)C(=O)N[C@H](C(=O)N[C@@H](CCSC)C(=O)N[C@H](C(=O)N[C@@H](CC(C)C)C(=O)O)C(C)C)[C@@H](C)CC [Peptide F107.23] | < 1000 nM | – | – | – | – | – | – | – | – | – | > 10000 nM | > 1000 nM | > 1000 nM | > 10000 nM | > 10000 nM | > 1000 nM | > 1000 nM | > 1000 nM | > 10000 nM | > 1000 nM | IC50 (DRB1*0401 (DR4w4); read-out: Binding Capacity (IC 50% nM) DR1,4,7 DR4w4): > 1000 nM; IC50 (DRB1*0701 (DR7); [21]): < 1000 nM; IC50 (DRB1*1501 (DR2w2b); [22]): > 1000 nM; IC50 (DRB1*1101 (DR5w11); Binding Capacity (IC50% nM) DR5w11): > 10000 nM; IC50 (DRB1*1302 (DR6w19); [23]): < 1000 nM; IC50 (DRB1*0901 (DR9); [24]): < 1000 nM
CC[C@H](C)[C@H](N)C(=O)N1CCC[C@H]1C(=O)N[C@@H](CCC(N)=O)C(=O)N[C@@H](CCC(=O)O)C(=O)N[C@@H](Cc1c[nH]c2ccccc12)C(=O)N[C@@H](CCCCN)C(=O)N1CCC[C@H]1C(=O)N[C@@H](C)C(=O)N[C@H](C(=O)N[C@H](C(=O)N[C@H](C(=O)N[C@@H](CCCCN)C(=O)N[C@H](C(=O)N[C@@H](CC(C)C)C(=O)N1CCC[C@H]1C(=O)N[C@@H](C)C(=O)O)C(C)C)C(C)C)[C@@H](C)O)[C@@H](C)CC [Peptide 1136.21] | < 1000 nM | < 1000 nM | – | – | – | < 1000 nM | < 1000 nM | 259 nM | – | – | > 10000 nM | > 1000 nM | > 1000 nM | > 10000 nM | – | – | – | > 1000 nM | – | > 1000 nM | IC50 (DRB1*0701 (DR7); [21]): < 1000 nM; IC50 (DRB1*1501 (DR2w2b); [22]): > 1000 nM; IC50 (DRB1*1302 (DR6w19); [23]): < 1000 nM; IC50 (DRB1*0901 (DR9); [24]): < 1000 nM
